# Assays:
# Type in all cases: physicochemical
# [1] = Hygroscopicity by dynamic vapor sorption (DVS); settings: up to 95% RH at 25° C.; bis-mesylate
# Procedure: (§1) Hygroscopicity was studied using dynamic vapor sorption (DVS, TA Q5000 SA, TA Instruments, New Castle, DE or DVS, DVS Intrinsic, Surface Measurement Systems, London, UK). A sample (2-20 mg) was placed in an aluminum DVS pan and loaded on the sample side of the twin pan balance. The water sorption and desorption were studied as a function of relative humidity (RH) at 25° C. In 10% RH increments, the relative humidity was increased from 5% RH to 95% RH and then decreased back to 5%. […] Data analysis was performed using Universal Analysis 2000 Version 4.7A (TA Instruments, New Castle, DE) for TA DVS runs and Microsoft Excel for SMS DVS runs.
# [2] = XRPD analysis of the sample after the DVS experiment (solid form stability to humidity); settings: after DVS cycle 5% RH to 95% RH and back at 25° C.
# Procedure: X-ray powder diffraction (XRPD) analysis was conducted on a diffractometer (PANalytical XPERT-PRO, PANalytical B. V., Almelo, Netherlands) using copper radiation (Cu Kα, λ=1.541874). Samples were spread evenly on a zero background sample plate. The generator was operated at a voltage of 45 kV and amperage of 40 mA. Slits were Soller 0.02 rad, antiscatter 1.0°, and divergence. Scans were performed from 2 to 40° 2θ with a 0.0167 step size. Data analysis was performed using X′Pert Data Viewer V1.2d (PANalytical B. V., Almelo, Netherlands).
# as §1
# [3] = Solid form stability at ambient conditions; settings: before KF could be run
smiles,measurement,setting,value
"C1=C(c2ccc3cn[nH]c3c2)N=C(Nc2ccc(N3CCOCC3)cc2)C2=NCCN12.CS(=O)(=O)O.CS(=O)(=O)O [Amorphous form, 6-(1H-indazol-6-yl)-N-(4-morpholinophenyl)-2,3-dihydroimidazo[1,2-a]pyrazin-8-amine bis-mesylate]",water absorbed (dynamic vapor sorption),[1],about 38 wt. %
same,solid form found by XRPD after the DVS experiment,[2],converted to Form VII
"C1=C(c2ccc3cn[nH]c3c2)N=C(Nc2ccc(N3CCOCC3)cc2)C2=NCCN12.CS(=O)(=O)O.CS(=O)(=O)O [Form I, 6-(1H-indazol-6-yl)-N-(4-morpholinophenyl)-2,3-dihydroimidazo[1,2-a]pyrazin-8-amine bis-mesylate]",water absorbed (dynamic vapor sorption),[1],about 30 wt. %
same,solid form found by XRPD after the DVS experiment,[2],converted to Form VII
"C1=C(c2ccc3cn[nH]c3c2)N=C(Nc2ccc(N3CCOCC3)cc2)C2=NCCN12.CS(=O)(=O)O.CS(=O)(=O)O [Form II, 6-(1H-indazol-6-yl)-N-(4-morpholinophenyl)-2,3-dihydroimidazo[1,2-a]pyrazin-8-amine bis-mesylate]",water absorbed (dynamic vapor sorption),[1],about 30 wt. %
same,solid form found by XRPD after the DVS experiment,[2],converted to Form VII
"C1=C(c2ccc3cn[nH]c3c2)N=C(Nc2ccc(N3CCOCC3)cc2)C2=NCCN12.CS(=O)(=O)O.CS(=O)(=O)O [Form VI, 6-(1H-indazol-6-yl)-N-(4-morpholinophenyl)-2,3-dihydroimidazo[1,2-a]pyrazin-8-amine bis-mesylate]",water absorbed (dynamic vapor sorption),[1],~17 wt. %
same,solid form found by XRPD after the DVS experiment,[2],converted to Form VII
"C1=C(c2ccc3cn[nH]c3c2)N=C(Nc2ccc(N3CCOCC3)cc2)C2=NCCN12.CS(=O)(=O)O.CS(=O)(=O)O [Form XIII, 6-(1H-indazol-6-yl)-N-(4-morpholinophenyl)-2,3-dihydroimidazo[1,2-a]pyrazin-8-amine bis-mesylate]",stability of the polymorphic form at ambient conditions,[3],unstable at ambient conditions
same,water absorbed (dynamic vapor sorption),[1],~25 wt. %
same,solid form found by XRPD after the DVS experiment,[2],converted to Form VII
"C1=C(c2ccc3cn[nH]c3c2)N=C(Nc2ccc(N3CCOCC3)cc2)C2=NCCN12.CS(=O)(=O)O.CS(=O)(=O)O [Form XIV, 6-(1H-indazol-6-yl)-N-(4-morpholinophenyl)-2,3-dihydroimidazo[1,2-a]pyrazin-8-amine bis-mesylate]",water absorbed (dynamic vapor sorption),[1],about 35 wt. %
same,solid form found by XRPD after the DVS experiment,[2],converted to Form VII
"C1=C(c2ccc3cn[nH]c3c2)N=C(Nc2ccc(N3CCOCC3)cc2)C2=NCCN12.CS(=O)(=O)O.CS(=O)(=O)O [Form XIX, 6-(1H-indazol-6-yl)-N-(4-morpholinophenyl)-2,3-dihydroimidazo[1,2-a]pyrazin-8-amine bis-mesylate]",water absorbed (dynamic vapor sorption),[1],about 28 wt. %
same,solid form found by XRPD after the DVS experiment,[2],converted to Form VII
"C1=C(c2ccc3cn[nH]c3c2)N=C(Nc2ccc(N3CCOCC3)cc2)C2=NCCN12.CS(=O)(=O)O.CS(=O)(=O)O [Form XV, 6-(1H-indazol-6-yl)-N-(4-morpholinophenyl)-2,3-dihydroimidazo[1,2-a]pyrazin-8-amine bis-mesylate]",water absorbed (dynamic vapor sorption),[1],~23 wt. %
same,solid form found by XRPD after the DVS experiment,[2],converted to Form VII
"C1=C(c2ccc3cn[nH]c3c2)N=C(Nc2ccc(N3CCOCC3)cc2)C2=NCCN12.CS(=O)(=O)O.CS(=O)(=O)O [Form XVI, 6-(1H-indazol-6-yl)-N-(4-morpholinophenyl)-2,3-dihydroimidazo[1,2-a]pyrazin-8-amine bis-mesylate]",water absorbed (dynamic vapor sorption),[1],~28 wt. %
same,solid form found by XRPD after the DVS experiment,[2],converted to Form VII
"C1=C(c2ccc3cn[nH]c3c2)N=C(Nc2ccc(N3CCOCC3)cc2)C2=NCCN12.CS(=O)(=O)O.CS(=O)(=O)O [Form XVIII, 6-(1H-indazol-6-yl)-N-(4-morpholinophenyl)-2,3-dihydroimidazo[1,2-a]pyrazin-8-amine bis-mesylate]",solid form found by XRPD after the DVS experiment,[2],converted to Form VII
